Peptide text beside a SMILES is read from it. * marks the point of attachment. X1 = Oc1cccc(N*)c1
molecular target: Protease (Human immunodeficiency virus 1, UniProt Q9YQ12); experiment: Inhibition of HIV1 subtype C protease expressed in Escherichia coli BL21 assessed as hydrolysis of substrate using chromogenic substrate Lys-Ala-Arg-Val-Nle-p-nitro-Phe-Glu-Ala-Nle-NH2 by spectrophotometric analysis
Sequence (Q9YQ12 whole entry): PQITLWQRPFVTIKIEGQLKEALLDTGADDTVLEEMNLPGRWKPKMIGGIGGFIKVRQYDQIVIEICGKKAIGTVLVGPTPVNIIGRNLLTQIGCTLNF

Row | IC50 | Structure (SMILES)
1 | 10000 nM | CC[C@H](C)[C@H](NC(=O)[C@@H](N)CO)C(=O)N[C@@H](C)C(=O)N[C@@H](CCC(=O)O)C(=O)Nc1cccc(O)c1 (H-SIAE-X1)
2 | > 10000 nM | CC[C@H](C)[C@H](NC(=O)[C@@H](N)CO)C(=O)N[C@@H](C)C(=O)N[C@@H](CCC(=O)O)C(=O)NC12NC(=O)C3(OC(C)=O)C4C5CC(C6C5C3C61)C42 (mixture of isomers)
3 | 5000 nM | CC[C@H](C)[C@H](NC(=O)[C@@H](N)CO)C(=O)N[C@@H](C)C(=O)N[C@@H](CCC(N)=O)C(=O)NC12NC(=O)C3(O)C4C5CC(C6C5C3C61)C42 (mixture of isomers)

Further lines, the compound ahead of its results:

Row | Structure (SMILES) | IC50
4 | CC[C@H](C)[C@H](NC(=O)[C@@H](N)CO)C(=O)N[C@@H](C)C(=O)N[C@]12NC(=O)[C@@]3(O)C4C5CC(C6C5C3C61)C42 (some centres undefined) | 500 nM
5 | CC[C@H](C)[C@H](NC(=O)[C@@H](N)CO)C(=O)N[C@@H](C)C(=O)N[C@@]12NC(=O)[C@]3(O)C4C5CC(C6C5C3C61)C42 (some centres undefined) | 10000 nM
6 | CC[C@H](C)[C@H](NC(=O)[C@@H](N)CO)C(=O)N[C@@H](C)C(=O)N[C@@H](CCC(=O)O)C(=O)NC12NC(=O)C3(O)C4C5CC(C6C5C3C61)C42 (mixture of isomers) | 78 nM
7 | CC[C@H](C)[C@H](N)C(=O)N[C@@H](C)C(=O)N[C@@H](CCC(=O)O)C(=O)NC12NC(=O)C3(O)C4C5CC(C6C5C3C61)C42 (mixture of isomers) | 500 nM
8 | CC[C@H](C)[C@H](NC(=O)[C@@H](N)CO)C(=O)N[C@H](C(=O)N[C@@H](CCC(=O)O)C(=O)NC12NC(=O)C3(O)C4C5CC(C6C5C3C61)C42)C(C)C (mixture of isomers) | 2000 nM
9 | COC(=O)N[C@H](C(=O)N[C@@H](Cc1ccccc1)[C@@H](O)CN(Cc1ccc(-c2ccccn2)cc1)NC(=O)[C@@H](NC(=O)OC)C(C)(C)C)C(C)(C)C [ATAZANAVIR] | 4 nM

Source: ChEMBL document CHEMBL1759903, “Pentacycloundecane-based inhibitors of wild-type C-South African HIV-protease” (Bioorg Med Chem Lett, 2011)
